According to ChEMBL document CHEMBL5230147, “Click, release, and fluoresce: In-vivo generation of CO with concomitant synthesis of a fluorescent reporter” (Bioorg Med Chem, 2021):
Each block holds one compound with its values, some of them ahead of it.

How the values were obtained:
[1] = Half life in C57BL/6 mouse at 100 mg/kg, ip at pH 7.4 measured after 24 hrs; format: ADME, organism-based; conditions: in vivo
Mus musculus = experiment: Anti-colitis activity against TNBS-induced C57BL/6 mouse model assessed as survival rate at 15 mg/kg, ip; format: functional
[2] = Half life in mouse at 15 mg/kg, ip at pH 7.4 measured at 24 to 72 hrs; format: ADME, organism-based; conditions: in vivo, time 24-72 hrs
[3] = Half life in rat at 0.1 mg/kg, IG at pH 7.4 measured for 24 hrs; format: ADME, organism-based; conditions: in vivo, po
[4] = Half life in rat at 0.1 mg/kg, IG at pH 1.2 measured for 24 hrs; format: ADME, organism-based; conditions: in vivo, po

half-life [1]: 1.9 min
Compound: C#CCN(C)C(=O)C1=C2C(=C(c3ccccc3)C1=O)c1cccc3cccc2c13

Compound: C#CCCN(C(=O)C1=C2C(=C(c3ccccc3)C1=O)c1cccc3cccc2c13)C(C)C
Activity (Mus musculus): 75%
half-life [2]: 72 min

half-life [3]: 24.1 min
half-life [4]: 17.1 min
Compound: C#CC(C)(C)NC(=O)C1=C2C(=C(c3ccccc3)C1=O)c1cccc3cccc2c13
